Experimental findings from patent publication US20040266871A1, “Methods for treating alzheimer's disease using quinaldoyl-amine derivatives of oxo-and hydroxy-substituted hydrocarbons” (priority 2001, published 2004) are described below.

On to `CC(C)(C)OC(=O)NN(C[C@H](O)[C@H](Cc1ccccc1)NC(=O)OCc1ccccc1)C1CCCCC1` [Example 31, t-Butyl 3-cyclohexyl-3-[(2S, 3S)-2-hydroxy-3-(phenylmethoxycarbonyl)amino-4-phenylbutyl]carbazate], for which the melting point is 142 to 143 °C.
